The supplement of paper PMC13207355

Key:
Conditions in all cases: exposure time: 72 h
[1] = tested on: E13 (patient-derived glioblastoma stem cells of classical subtype); assay: surviving fraction (nuclei count normalised to DMSO); higher = more cells surviving (less toxic)
[2] = tested on: E21 (patient-derived glioblastoma stem cells of mesenchymal subtype); assay: as above
[3] = tested on: E28 (patient-derived glioblastoma stem cells of classical subtype); assay: as above
[4] = tested on: E31 (patient-derived glioblastoma stem cells of proneural subtype); assay: as above
[5] = tested on: E34 (patient-derived glioblastoma stem cells of proneural subtype); assay: as above
[6] = tested on: E57 (patient-derived glioblastoma stem cells of mesenchymal subtype); assay: as above
[7] = tested on: FT3469 (normal neural stem cell line); assay: as above
[8] = tested on: E13; assay: phenotypic distance (Euclidean, principal components) from DMSO controls (arbitrary units); higher = stronger morphological change
[9] = tested on: E21; assay: as above
[10] = tested on: E28; assay: as above
[11] = tested on: E31; assay: as above
[12] = tested on: E34; assay: as above
[13] = tested on: E57; assay: as above
[14] = tested on: FT3469; assay: as above
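Wherever phenotypic distance (Euclidean, principal components) from DMSO controls is given: cell Painting imaging in 384-well plates, CellProfiler features reduced to at least 20 principal components, Euclidean distance versus same-plate DMSO vehicle wells (0.1% v/v), median over six images per well.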
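Wherever surviving fraction (nuclei count normalised to DMSO) is given: nuclei counted by high-content imaging of Hoechst-stained cells in laminin-coated 384-well plates, relative to 0.1% DMSO vehicle wells, with staurosporine as cell-death control.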

C/C=C(\C)C(=O)N[C@@H](c1ccccc1)[C@@H](O)C(=O)O[C@H]1C[C@@]2(O)[C@@H](OC(=O)c3ccccc3)[C@@H]3[C@]4(OC(C)=O)CO[C@@H]4C[C@H](O)[C@@]3(C)C(=O)[C@H](OC(C)=O)C(=C1C)C2(C)C [Cephalomannine]
Conditions	phenotypic distance	surviving fraction
[1], 4.11523 nM	–	0.308
[1], 12.34567901 nM	–	0.245
[1], 37.037 nM	–	0.27
[1], 111.1111111 nM	–	0.137
[1], 333.333 nM	–	0.171
[1], 1000 nM	–	0.171
[1], 3000 nM	–	0.19
[2], 4.11523 nM	–	0.335
[2], 12.34567901 nM	–	0.327
[2], 37.037 nM	–	0.209
[2], 111.1111111 nM	–	0.246
[2], 333.333 nM	–	0.213
[2], 1000 nM	–	0.214
[2], 3000 nM	–	0.198
[3], 4.11523 nM	–	0.515
[3], 12.34567901 nM	–	0.557
[3], 37.037 nM	–	0.304
[3], 111.1111111 nM	–	0.357
[3], 333.333 nM	–	0.302
[3], 1000 nM	–	0.286
[3], 3000 nM	–	0.249
[4], 4.11523 nM	–	0.23
[4], 12.34567901 nM	–	0.132
[4], 37.037 nM	–	0.12
[4], 111.1111111 nM	–	0.11
[4], 333.333 nM	–	0.0834
[4], 1000 nM	–	0.12
[4], 3000 nM	–	0.148
[5], 4.11523 nM	–	0.497
[5], 12.34567901 nM	–	0.442
[5], 37.037 nM	–	0.356
[5], 111.1111111 nM	–	0.284
[5], 333.333 nM	–	0.293
[5], 1000 nM	–	0.356
[5], 3000 nM	–	0.382
[6], 4.11523 nM	–	0.156
[6], 12.34567901 nM	–	0.125
[6], 37.037 nM	–	0.0853
[6], 111.1111111 nM	–	0.0579
[6], 333.333 nM	–	0.0628
[6], 1000 nM	–	0.0598
[6], 3000 nM	–	0.0598
[7], 4.11523 nM	–	0.62
[7], 12.34567901 nM	–	0.646
[7], 37.037 nM	–	0.577
[7], 111.1111111 nM	–	0.441
[7], 333.333 nM	–	0.378
[7], 1000 nM	–	0.465
[7], 3000 nM	–	0.449
[8], 4.11523 nM	4.23	–
[8], 12.34567901 nM	4.51	–
[8], 37.037 nM	4.54	–
[8], 111.1111111 nM	6.45	–
[8], 333.333 nM	5.33	–
[8], 1000 nM	5.74	–
[8], 3000 nM	5.58	–
[9], 4.11523 nM	4.99	–
[9], 12.34567901 nM	5.05	–
[9], 37.037 nM	5.62	–
[9], 111.1111111 nM	6.2	–
[9], 333.333 nM	5.44	–
[9], 1000 nM	6.44	–
[9], 3000 nM	7.14	–
[10], 4.11523 nM	3.22	–
[10], 12.34567901 nM	3.3	–
[10], 37.037 nM	3.65	–
[10], 111.1111111 nM	3.5	–
[10], 333.333 nM	3.82	–
[10], 1000 nM	3.7	–
[10], 3000 nM	4.32	–
[11], 4.11523 nM	3.6	–
[11], 12.34567901 nM	4.39	–
[11], 37.037 nM	3.82	–
[11], 111.1111111 nM	4.56	–
[11], 333.333 nM	4.66	–
[11], 1000 nM	3.37	–
[11], 3000 nM	3.61	–
[12], 4.11523 nM	3.55	–
[12], 12.34567901 nM	3.84	–
[12], 37.037 nM	3.81	–
[12], 111.1111111 nM	3.17	–
[12], 333.333 nM	3.79	–
[12], 1000 nM	3.73	–
[12], 3000 nM	3.93	–
[13], 4.11523 nM	5.45	–
[13], 12.34567901 nM	5.1	–
[13], 37.037 nM	5.59	–
[13], 111.1111111 nM	5.43	–
[13], 333.333 nM	5.14	–
[13], 1000 nM	5.43	–
[13], 3000 nM	5.27	–
[14], 4.11523 nM	2.71	–
[14], 12.34567901 nM	2.83	–
[14], 37.037 nM	3.01	–
[14], 111.1111111 nM	3.67	–
[14], 333.333 nM	3.37	–
[14], 1000 nM	3.99	–
[14], 3000 nM	4.09	–

C=CC(=O)Nc1cccc(Oc2nc(Nc3ccc(N4CCN(C)CC4)cc3)nc3ccsc23)c1 [Olmutinib]
Conditions	phenotypic distance	surviving fraction
[1], 4.1 nM	–	0.944
[1], 12.3 nM	–	0.915
[1], 37 nM	–	0.963
[1], 111.1 nM	–	0.967
[1], 333.3 nM	–	0.965
[1], 1000 nM	–	0.801
[1], 3000 nM	–	0.453
[2], 4.1 nM	–	0.895
[2], 12.3 nM	–	0.932
[2], 37 nM	–	0.932
[2], 111.1 nM	–	0.759
[2], 333.3 nM	–	0.873
[2], 1000 nM	–	0.67
[2], 3000 nM	–	0.411
[3], 4.1 nM	–	0.955
[3], 12.3 nM	–	0.88
[3], 37 nM	–	1.02
[3], 111.1 nM	–	0.954
[3], 333.3 nM	–	0.885
[3], 1000 nM	–	0.842
[3], 3000 nM	–	0.419
[4], 4.1 nM	–	0.776
[4], 12.3 nM	–	0.969
[4], 37 nM	–	1.01
[4], 111.1 nM	–	0.698
[4], 333.3 nM	–	0.856
[4], 1000 nM	–	0.568
[4], 3000 nM	–	0.155
[5], 4.1 nM	–	0.929
[5], 12.3 nM	–	0.967
[5], 37 nM	–	0.814
[5], 111.1 nM	–	0.994
[5], 333.3 nM	–	0.857
[5], 1000 nM	–	0.804
[5], 3000 nM	–	0.673
[6], 4.1 nM	–	0.983
[6], 12.3 nM	–	1.09
[6], 37 nM	–	0.983
[6], 111.1 nM	–	0.915
[6], 333.3 nM	–	0.958
[6], 1000 nM	–	0.845
[6], 3000 nM	–	0.585
[7], 4.1 nM	–	0.879
[7], 12.3 nM	–	0.925
[7], 37 nM	–	0.864
[7], 111.1 nM	–	0.916
[7], 333.3 nM	–	0.851
[7], 1000 nM	–	0.856
[7], 3000 nM	–	0.722
[8], 4.1 nM	0.908	–
[8], 12.3 nM	0.809	–
[8], 37 nM	2.13	–
[8], 111.1 nM	1.1	–
[8], 333.3 nM	0.827	–
[8], 1000 nM	0.937	–
[8], 3000 nM	1.92	–
[9], 4.1 nM	0.923	–
[9], 12.3 nM	0.831	–
[9], 37 nM	0.851	–
[9], 111.1 nM	3.27	–
[9], 333.3 nM	1.24	–
[9], 1000 nM	2.44	–
[9], 3000 nM	5.22	–
[10], 4.1 nM	0.675	–
[10], 12.3 nM	0.862	–
[10], 37 nM	0.601	–
[10], 111.1 nM	0.634	–
[10], 333.3 nM	0.515	–
[10], 1000 nM	1.01	–
[10], 3000 nM	2.28	–
[11], 4.1 nM	1.5	–
[11], 12.3 nM	0.605	–
[11], 37 nM	0.731	–
[11], 111.1 nM	1.36	–
[11], 333.3 nM	0.65	–
[11], 1000 nM	1.66	–
[11], 3000 nM	4.05	–
[12], 4.1 nM	0.793	–
[12], 12.3 nM	0.977	–
[12], 37 nM	0.66	–
[12], 111.1 nM	0.999	–
[12], 333.3 nM	0.636	–
[12], 1000 nM	0.75	–
[12], 3000 nM	2.02	–
[13], 4.1 nM	0.67	–
[13], 12.3 nM	0.94	–
[13], 37 nM	0.658	–
[13], 111.1 nM	2.04	–
[13], 333.3 nM	0.972	–
[13], 1000 nM	0.888	–
[13], 3000 nM	3.89	–
[14], 4.1 nM	1.28	–
[14], 12.3 nM	1.16	–
[14], 37 nM	1.51	–
[14], 111.1 nM	1.24	–
[14], 333.3 nM	1.44	–
[14], 1000 nM	1.3	–
[14], 3000 nM	1.91	–
